Data from patent US10899754B2, “Modulators of indoleamine 2,3-dioxygenase” (GLAXOSMITHKLINE INTELLECTUAL PROPERTY DEVELOPMENT LIMITED, priority 2016, dated 2021).
Where two headings read alike, the source gives them in different places.

Legend:
[1] = test system: human peripheral blood mononuclear cells (PBMC); experiment: PBMC cytotoxicity assay (CellTiter-Glo); type: cell-based; conditions: 2 days, pCC50
In short: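 % cytotoxicity was taken from CellTiter-Glo luminescence, using wells without cells and stimulated DMSO wells as references, and fitted by four-parameter curve to give XC50. Cells were human PBMC at 50,000 per well, activated with 100 ng/ml IFN-γ plus 50 ng/ml LPS. Incubation with 11-point, 3-fold dilution series ran for 2 days at 37 °C.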

[2] = Toxicokinetics in Beagle dogs, 7 day repeat oral administration; type: in vivo; conditions: 20 mg/kg PO BID; for Therapeutic Index AUC (0-12 hr): versus predicted human efficacious AUC 0.376 μg * hr/mL; for Therapeutic Index Cmax: versus predicted human efficacious Cmax 0.078 μg/mL; for Cmax / AUC(0-t): Beagle, dog, po, 20 mg/kg; for Cmax / AUC(0-t) / Tmax: plasma; for AUC(0-t): Subject 1, read-out: AUC (0-12 hr)
From the text: (§1) To understand its toxicokinetics and potential effect on hepatic functions, EXAMPLE 23 was orally dosed to Beagle dogs for 7 consecutive days.

[3] = Tolerability, body weight and hepatic functions in Beagle dogs, 7 day repeat oral administration; type: in vivo; conditions: Beagle dog, 20 mg/kg PO BID for 7 days
Method: FIG. 1 is daily body weights of Beagle dogs during the study of example 23, 20 mg/kg PO BID dose.
FIG. 2 is daily hepatic enzyme levels of Beagle dogs during the study: ALT (alanine aminotransferase), AST (aspartate aminotransferase), ALP (alkaline phosphatase) and T-Bil (total bilirubin) for example 23, 20 mg/kg PO BID dose.
as §1

With `CC(C)CN(c1ccc([C@H](C)CC(=O)O)cc1Nc1nc(C(F)(F)F)ns1)C1CCOCC1` [Example 20, (R)-3-(4-(Isobutyl(tetrahydro-2H-pyran-4-yl)amino)-3-((3-(trifluoromethyl)-1,2,4-thiadiazol-5-yl)amino)phenyl)butanoic Acid] as the molecule, how does the “PBMC TOX PXC50” value [1] read?
Its value is <5.

For `CC(C)CN(c1ccc([C@H](C)CC(=O)O)cc1Nc1nnc(C2CC2)s1)C1CCOCC1` [Example 23, (R)-3-(3-((5-cyclopropyl-1,3,4-thiadiazol-2-yl)amino)-4-(isobutyl (tetrahydro-2H-pyran-4-yl)amino)phenyl)butanoic Acid], which “Therapeutic Index AUC (0-12 hr)” value ([2]; Beagle dog, Day1, Female) is on record?
Its value is 4.

And the “Therapeutic Index Cmax” value ([2]; Beagle dog, Day1, Female)?
Its value is 13.

What about the “Therapeutic Index AUC (0-12 hr)” value ([2]; Beagle dog, Day1, Male) of the same molecule?
The value was 14.

What about the “Therapeutic Index Cmax” value ([2]; Beagle dog, Day1, Male) of the same molecule?
Its value is 31.

And the “Therapeutic Index AUC (0-12 hr)” value ([2]; Beagle dog, Day7, Female)?
The value was 10.

And the “Therapeutic Index Cmax” value ([2]; Beagle dog, Day7, Female)?
Its value is 50.

And the “Therapeutic Index AUC (0-12 hr)” value ([2]; Beagle dog, Day7, Male)?
Its value is 40.

And the “Therapeutic Index Cmax” value ([2]; Beagle dog, Day7, Male)?
The value was 81.

And the “Therapeutic coverage in AUC0-12 for the predicted human efficacious dose” value ([2]; Beagle dog, Day 7, average)?
Its value is ~25 fold.

And the “Therapeutic coverage in Cmax for the predicted human efficacious dose” value ([2]; Beagle dog, Day 7, average)?
Its value is ~66 fold.

What about the “Time quantifiable in plasma post the start of the oral dose” value ([2]; Beagle dog, Days 1 and 7) of the same molecule?
The value was “up to 24 hours”.

What about the “Increase in systemic exposures (Cmax and AUC0-12 values) on Day 7 in comparison to Day 1” value ([2]; Beagle dog, both dogs) of the same molecule?
Its value is ~3 fold.

What about the Cmax ([2]; female, Day1, Female, Subject 1) of the same molecule?
Its Cmax is 1000 ng/mL.

What about the AUC(0-t) ([2]; female, Day1, Female) of the same molecule?
Its AUC(0-t) is 1500 ng·h/mL.

What about the Cmax ([2]; female, Day7, Female, Subject 1) of the same molecule?
Its Cmax is 3900 ng/mL.

What about the AUC(0-t) ([2]; female, Day7, Female) of the same molecule?
Its AUC(0-t) is 3800 ng·h/mL.

And the Cmax ([2]; male, Day1, Male, Subject 1)?
The Cmax was 2400 ng/mL.

What about the AUC(0-t) ([2]; male, Day1, Male) of the same molecule?
Its AUC(0-t) is 5100 ng·h/mL.

And the Cmax ([2]; male, Day7, Male, Subject 1)?
The Cmax was 6300 ng/mL.

And the AUC(0-t) ([2]; male, Day7, Male)?
Its AUC(0-t) is 14900 ng·h/mL.

And the Tmax ([2]; Beagle dog, Day1, Male, Subject 1)?
Its Tmax is 30 min.

What about the Tmax ([2]; Beagle dog, Day7, Female, Subject 1) of the same molecule?
The Tmax was 30 min.

What about the Tmax ([2]; Beagle dog, post dose on Days 1 and 7) of the same molecule?
Its Tmax is 30 min.

What about the Clinical observations [3] of the same molecule?
The Clinical observations was “no clinical observations were made”.

And the “Tolerability throughout the study” value [3]?
Its value is “well tolerated”.

And the “Hepatic functions measured by serum ALT, AST, ALP and T-Bil levels” value ([3]; FIG. 2)?
The value was “in the normal variable ranges”.

And the Body weights ([3]; male and female, FIG. 1)?
The Body weights was “constant”.

And the “PBMC TOX PXC50” value [1]?
Its value is <5.
